Paper PMC10490123, “Synthesis and In Vitro Anticancer Activity of Novel 4-Aryl-3-(4-methoxyphenyl)-1-phenyl-1H-pyrazolo[3,4-b]pyridines Arrest Cell Cycle and Induce Cell Apoptosis by Inhibiting CDK2 and/or CDK9” (Molecules, 2023)
Entries after “also recorded” stand apart in the source; their conditions may differ.

Key:
[1] = test system: Hela cancer cell line; assay: MTT cytotoxicity assay, cervical cancer Hela; type: cell-based; settings: Homo sapiens, mean ± SD of three experiments
Protocol: (§1) The cytotoxicity of compounds 9a–h and 14a–h against three cell lines, namely, cervical cancer Hela, breast cancer MCF7, and colon HCT-116, compared with doxorubicin as a reference compound was performed using MTT assay. The cytotoxic concentration (IC50 in µM) is illustrated in Table 1.
(§2) Standard MTT colorimetric assay was applied to test the IC50 of compounds 9a–h and 14a–h against three cell lines, namely, cervical cancer Hela, breast cancer MCF7, and colon HCT-116, compared with doxorubicin as a reference compound with the typical reported methodology of MTT colorimetric assay.

[2] = test system: MCF7 cancer cell line; assay: MTT cytotoxicity assay, breast cancer MCF7; type: cell-based; settings: Homo sapiens, mean ± SD of three experiments
Protocol: as §1, §2

[3] = test system: HCT-116 cancer cell line; assay: MTT cytotoxicity assay, colon HCT-116; type: cell-based; settings: Homo sapiens, mean ± SD of three experiments, read-out: IC50 HCT116
Protocol: as §1, §2

[4] = MTT cytotoxicity on normal cell line WI-38; type: cell-based; settings: human, WI-38 normal cells, MTT assay, mean ± SD of three experiments, read-out: In Vitro Cytotoxicity on WI-38 (IC50)
[5] = test system: MCF7 cells; assay: Cell cycle analysis (PI flow cytometry), MCF7; type: cell-based
Protocol: (§3) Cell cycle arrest of cervical cancer cells Hela, breast cancer cells MCF7, and colon cancer cells HCT-116 were assessed for compounds 9a and 14g at their IC50.

[6] = test system: HCT-116 cells; assay: Cell cycle analysis (PI flow cytometry), HCT-116; type: cell-based; settings: HCT-116, compound at its IC50
Protocol: as §3

[7] = test system: MCF7 cells; assay: Annexin V/PI apoptosis assay, MCF7; type: cell-based; settings: MCF7, IC50 concentration, 24 h
[8] = test system: HCT-116 cells; assay: Annexin V/PI apoptosis assay, HCT-116; type: cell-based; settings: HCT-116, IC50 concentration, 24 h
[9] = target: T1, CDK2 (Homo sapiens, UniProt P24941); assay: In vitro CDK2 enzyme inhibition assay (BPS Bioscience kit, chemiluminescence); type: biochemical
T1 construct: purchased BPS Bioscience
Protocol: (§4) The CDK in vitro inhibitory activity of 9a–h and 14a–h toward CDK2 and CDK9 was performed using CDK Assay Kit (BPS Bioscience, USA) at different dilutions of 30, 10, 3, 1, 0.3, 0.1, 0.03, and 0.01 µM, measuring the chemiluminescence using BioTek™ Synergy2 Microplate Reader (BioTek, Santa Clara, CA, USA).

[10] = target: T2, CDK9 (Homo sapiens, UniProt P50750); assay: In vitro CDK9 enzyme inhibition assay (BPS Bioscience kit, chemiluminescence); type: biochemical
T2 construct: purchased BPS Bioscience
T2 sequence (P50750 whole entry): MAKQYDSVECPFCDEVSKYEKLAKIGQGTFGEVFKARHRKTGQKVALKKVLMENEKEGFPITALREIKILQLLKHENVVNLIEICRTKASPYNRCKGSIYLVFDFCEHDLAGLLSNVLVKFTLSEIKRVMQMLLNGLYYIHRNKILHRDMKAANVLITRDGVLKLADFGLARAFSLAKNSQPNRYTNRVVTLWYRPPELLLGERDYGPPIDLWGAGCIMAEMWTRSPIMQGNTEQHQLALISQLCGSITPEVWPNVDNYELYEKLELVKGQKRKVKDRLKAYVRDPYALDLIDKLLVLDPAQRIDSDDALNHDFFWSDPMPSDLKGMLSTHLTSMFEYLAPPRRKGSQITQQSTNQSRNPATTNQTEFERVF
T2 sequence (O60563 whole entry partner): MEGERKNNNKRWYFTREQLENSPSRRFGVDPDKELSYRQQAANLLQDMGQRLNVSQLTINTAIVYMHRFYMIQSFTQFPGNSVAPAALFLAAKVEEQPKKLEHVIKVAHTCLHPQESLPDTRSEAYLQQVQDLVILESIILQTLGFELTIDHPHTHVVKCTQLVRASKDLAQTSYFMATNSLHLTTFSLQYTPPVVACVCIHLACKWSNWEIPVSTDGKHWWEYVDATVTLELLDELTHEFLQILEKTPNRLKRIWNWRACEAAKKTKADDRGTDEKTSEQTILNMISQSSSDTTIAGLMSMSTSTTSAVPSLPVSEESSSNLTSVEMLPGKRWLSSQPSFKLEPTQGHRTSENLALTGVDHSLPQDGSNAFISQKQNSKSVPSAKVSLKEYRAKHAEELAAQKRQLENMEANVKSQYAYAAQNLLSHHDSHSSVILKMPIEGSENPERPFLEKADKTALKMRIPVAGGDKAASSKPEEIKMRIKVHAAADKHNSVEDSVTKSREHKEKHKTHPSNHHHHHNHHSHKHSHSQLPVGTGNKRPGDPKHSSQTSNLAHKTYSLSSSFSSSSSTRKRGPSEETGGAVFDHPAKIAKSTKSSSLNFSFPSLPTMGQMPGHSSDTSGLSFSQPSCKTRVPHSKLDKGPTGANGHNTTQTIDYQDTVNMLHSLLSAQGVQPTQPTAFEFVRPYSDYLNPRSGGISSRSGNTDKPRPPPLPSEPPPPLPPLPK
Protocol: as §4

[11] = test system: Hela cells; assay: Cell cycle analysis (PI flow cytometry), Hela; type: cell-based
Protocol: as §3

[12] = test system: Hela cells; assay: Annexin V/PI apoptosis assay, Hela; type: cell-based; settings: IC50 concentration, 24 h
Protocol: An apoptotic assay using Annexin V/PI analysis for compounds 9a and 14g is evaluated. Compound 9a induced a significant level of early and late apoptosis (total = 42.19) in the Hela cell line when compared with the control cells (Table 3, Figure 5 and Figure 6).

SMILES | IC50 [1] | IC50 [2] | IC50 [3] | melting point | also measured
COc1ccc(-c2nn(-c3ccccc3)c3nc(-c4ccccc4)c(C#N)c(-c4ccc(O)cc4)c23)cc1 [Compound 14g, 4-(4-Hydroxyphenyl)-3-(4-methoxyphenyl)-1,6-diphenyl-1H-pyrazolo[3,4-b]pyridine-5-carbonitrile] | 12.7 ± 1.53 µM | 4.66 ± 0.38 µM | 1.98 ± 0.17 µM | 295 to 297 °C | IC50 [4]: 21.8 ± 2.96 µM; Cell cycle Comment ([5]; MCF7, compound at its IC50): arresting cell cycle for MCF7 at G2/M phase; also recorded: cell growth arrest@ G2/M; DNA Content %G2/M ([5]; MCF7, compound at its IC50, control 14.86): 24.94%; DNA Content %S ([5]; MCF7, compound at its IC50, control 39.02): 33.81%; DNA Content %G0-G1 ([5]; MCF7, compound at its IC50, control 46.12): 41.25%; DNA accumulation at G2/M phase relative to control ([5]; MCF7, control 14.86%): 1.68 fold; Cell cycle Comment [6]: arresting cell cycle at S phase; also recorded: cell growth arrest@ S; DNA Content %G2/M ([6]; control 17.64): 13.24%; DNA Content %S ([6]; control 26.49): 34.82%; DNA Content %G0-G1 ([6]; control 55.87): 51.94%; Apoptosis Late ([7]; control 0.27): 7.55%; Apoptosis Early ([7]; control 0.44): 13.07%; Necrosis ([7]; control 0.78): 2.27%; Apoptosis Total ([7]; total equals early + late + necrosis, control 1.49): 22.89%; Apoptosis Late ([8]; control 0.19): 6.95%; Apoptosis Early ([8]; control 0.63): 16.01%; Necrosis ([8]; control 1.69): 3.75%; Apoptosis Total ([8]; total equals early + late + necrosis, control 2.51): 26.71%; IC50 [9]: 460 ± 24 nM; IC50 [10]: 801 ± 41 nM
COc1ccc(-c2nn(-c3ccccc3)c3nccc(-c4ccc(OC)c(OC)c4)c23)cc1 [Compound 9h, 4-(3,4-Dimethoxyphenyl)-3-(4-methoxyphenyl)-1-phenyl-1H-pyrazolo[3,4-b]pyridine] | 7.92 ± 1.11 µM | 9.7 ± 1 µM | 9.69 ± 0.56 µM | 165 to 167 °C | –
COc1ccc(-c2nn(-c3ccccc3)c3nc(-c4ccccc4)c(C#N)c(-c4ccc(N(C)C)cc4)c23)cc1 [Compound 14f, 4-(4-(Dimethylamino)phenyl)-3-(4-methoxyphenyl)-1,6-diphenyl-1H-pyrazolo[3,4-b]pyridine-5-carbonitrile] | 46.1 ± 3.7 µM | 19.6 ± 1.26 µM | 40 ± 4.32 µM | 230 to 232 °C | –
COc1ccc(-c2nn(-c3ccccc3)c3nc(-c4ccccc4)c(C#N)c(-c4ccc(OC)c(OC)c4)c23)cc1 [Compound 14h, 4-(3,4-Dimethoxyphenyl)-3-(4-methoxyphenyl)-1,6-diphenyl-1H-pyrazolo[3,4-b]pyridine-5-carbonitrile] | 31.7 ± 2.48 µM | 38.1 ± 2.76 µM | 3.69 ± 0.11 µM | 212 to 214 °C | –
COc1ccc(-c2nn(-c3ccccc3)c3nccc(-c4ccc([N+](=O)[O-])cc4)c23)cc1 [Compound 9g, 3-(4-Methoxyphenyl)-4-(4-nitrophenyl)-1-phenyl-1H-pyrazolo[3,4-b]pyridine] | 28.3 ± 4.23 µM | 26.3 ± 2.85 µM | 40 ± 3.19 µM | > 300 °C | –
COc1ccc(-c2ccnc3c2c(-c2ccc(OC)cc2)nn3-c2ccccc2)cc1 [Compound 9c, 3,4-Bis(4-methoxyphenyl)-1-phenyl-1H-pyrazolo[3,4-b]pyridine] | 26.6 ± 3.37 µM | 59 ± 5.52 µM | 43.2 ± 3.26 µM | 198 to 200 °C | –
COc1ccc(-c2nn(-c3ccccc3)c3nccc(-c4ccccc4)c23)cc1 [Compound 9a, 3-(4-Methoxyphenyl)-1,4-diphenyl-1H-pyrazolo[3,4-b]pyridine] | 2.59 ± 0.16 µM | 6.39 ± 0.46 µM | 15.3 ± 1.46 µM | 161 to 163 °C | IC50 [4]: 26.4 ± 3.23 µM; Cell cycle Comment ([11]; compound at its IC50): cell cycle arrest at the S phase; also recorded: cell growth arrest@ S; DNA Content %G2/M ([11]; compound at its IC50, control 14.5): 11.36%; DNA Content %S ([11]; compound at its IC50, control 24.11): 29.54%; DNA Content %G0-G1 ([11]; compound at its IC50, control 61.39): 59.1%; cell accumulation at S phase relative to control ([11]; control 24.11%): 1.23 fold; Apoptosis Late ([12]; control 0.12): 12.82%; Apoptosis Early ([12]; control 0.49): 23.21%; Necrosis ([12]; control 1.72): 6.16%; Apoptosis Total ([12]; total equals early + late + necrosis, control 2.33, % printed in Figure 6 only): 42.19%; IC50 [9]: 1630 ± 9 nM; IC50 [10]: 262 ± 13 nM
COc1ccc(-c2nn(-c3ccccc3)c3nc(-c4ccccc4)c(C#N)c(-c4ccc(C)cc4)c23)cc1 [Compound 14b, 3-(4-Methoxyphenyl)-1,6-diphenyl-4-(p-tolyl)-1H-pyrazolo[3,4-b]pyridine-5-carbonitrile] | 21 ± 2.18 µM | 21.4 ± 2.05 µM | 36.3 ± 1.83 µM | 203 to 205 °C | –
COc1ccc(-c2nn(-c3ccccc3)c3nc(-c4ccccc4)c(C#N)c(-c4ccccc4)c23)cc1 [Compound 14a, 3-(4-Methoxyphenyl)-1,4,6-triphenyl-1H-pyrazolo[3,4-b]pyridine-5-carbonitrile] | 23.1 ± 1.63 µM | 20.7 ± 1.73 µM | 25.8 ± 2.58 µM | 229 to 231 °C | –
COc1cccc2c1C(=O)c1c(O)c3c(c(O)c1C2=O)C[C@@](O)(C(=O)CO)C[C@@H]3O[C@H]1C[C@H](N)[C@H](O)[C@H](C)O1 [Doxorubicin, reference compound] | 2.35 ± 0.08 µM | 4.57 ± 0.28 µM | 2.11 ± 0.2 µM | – | IC50 [4]: 15.6 ± 0.37 µM
COc1ccc(-c2nn(-c3ccccc3)c3nccc(-c4ccc(Cl)cc4)c23)cc1 [Compound 9e, 4-(4-Chlorophenyl)-3-(4-methoxyphenyl)-1-phenyl-1H-pyrazolo[3,4-b]pyridine] | 48.5 ± 4.2 µM | 20.3 ± 3.21 µM | 16.6 ± 1.34 µM | 210 to 212 °C | –
COc1ccc(-c2nn(-c3ccccc3)c3nc(-c4ccccc4)c(C#N)c(-c4ccc(Cl)cc4)c23)cc1 [Compound 14d, 4-(4-Chlorophenyl)-3-(4-methoxyphenyl)-1,6-diphenyl-1H-pyrazolo[3,4-b]pyridine-5-carbonitrile] | 21.1 ± 2.03 µM | 37.2 ± 2.48 µM | 31.1 ± 3.54 µM | 258 to 260 °C | –
COc1ccc(-c2nn(-c3ccccc3)c3nccc(-c4ccc(Br)cc4)c23)cc1 [Compound 9f, 4-(4-Bromophenyl)-3-(4-methoxyphenyl)-1-phenyl-1H-pyrazolo[3,4-b]pyridine] | 20.4 ± 1.74 µM | 35.6 ± 4.64 µM | 16.8 ± 0.76 µM | 217 to 219 °C | –
COc1ccc(-c2nn(-c3ccccc3)c3nc(-c4ccccc4)c(C#N)c(-c4ccc(Br)cc4)c23)cc1 [Compound 14e, 4-(4-Bromophenyl)-3-(4-methoxyphenyl)-1,6-diphenyl-1H-pyrazolo[3,4-b]pyridine-5-carbonitrile] | 37.3 ± 3.32 µM | 34.4 ± 2.59 µM | 37.8 ± 2.63 µM | 221 to 223 °C | –
COc1ccc(-c2nn(-c3ccccc3)c3nccc(-c4ccc(C)cc4)c23)cc1 [Compound 9b, 3-(4-Methoxyphenyl)-1-phenyl-4-(p-tolyl)-1H-pyrazolo[3,4-b]pyridine] | 14 ± 1.25 µM | 22.4 ± 3.18 µM | 18 ± 1.16 µM | 186 to 188 °C | –
COc1ccc(-c2nn(-c3ccccc3)c3nccc(-c4ccc(F)cc4)c23)cc1 [Compound 9d, 4-(4-Fluorophenyl)-3-(4-methoxyphenyl)-1-phenyl-1H-pyrazolo[3,4-b]pyridine] | 19.6 ± 1.68 µM | 13 ± 1.33 µM | 17.5 ± 0.98 µM | 171 to 173 °C | –
COc1ccc(-c2nn(-c3ccccc3)c3nc(-c4ccccc4)c(C#N)c(-c4ccc(OC)cc4)c23)cc1 [Compound 14c, 3,4-Bis(4-methoxyphenyl)-1,6-diphenyl-1H-pyrazolo[3,4-b]pyridine-5-carbonitrile] | 41.3 ± 2.79 µM | 39.3 ± 3.74 µM | 36.7 ± 2.02 µM | 207 to 209 °C | –
